# Laboratory results taken from ChEMBL document CHEMBL5715942, “A novel histone deacetylase 8 (HDAC8)-specific inhibitor PCI-34051 induces apoptosis in T-cell lymphomas” (Leukemia, 2008).
# The source made the active and inactive calls. The rule behind the calls is not given here.
# Experiments:
# A549 = test: Induction of apoptosis in human A549 cells incubated for 72 hrs by Annexin-V staining based flow cytometry analysis relative to control; assay type: functional
# MCF7 [1] = test: Anti-proliferative activity against human MCF7 cells assessed as growth inhibition incubated for 72 hrs by alamar blue staining based fluorometric assay; assay type: functional
# OVCAR-3 [2] = test: Anti-proliferative activity against human OVCAR-3 cells assessed as growth inhibition incubated for 72 hrs by alamar blue staining based fluorometric assay; assay type: functional
# RKO [3] = test: Anti-proliferative activity against human RKO cells assessed as growth inhibition incubated for 72 hrs by alamar blue staining based fluorometric assay; assay type: functional
# U-87 MG [4] = test: Anti-proliferative activity against human U87 cells assessed as growth inhibition incubated for 72 hrs by alamar blue staining based fluorometric assay; assay type: functional, U-87MG ATCC
# HeLa = test: Anti-proliferative activity against human HeLa cells assessed as growth inhibition incubated for 72 hrs by alamar blue staining based fluorometric assay; assay type: functional
# HCT-116 [5] = test: Anti-proliferative activity against human HCT-116 cells assessed as growth inhibition incubated for 72 hrs by alamar blue staining based fluorometric assay; assay type: functional
# HCT-116 [6] = test: Induction of apoptosis in human HCT-116 cells incubated for 72 hrs by Annexin-V staining based flow cytometry analysis relative to control; assay type: functional
# U-87 MG [7] = test: Induction of apoptosis in human U87 cells incubated for 72 hrs by Annexin-V staining based flow cytometry analysis relative to control; assay type: functional, U-87MG ATCC
# RKO [8] = test: Induction of apoptosis in human RKO cells incubated for 72 hrs by Annexin-V staining based flow cytometry analysis relative to control; assay type: functional
# MCF7 [9] = test: Induction of apoptosis in human MCF7 cells incubated for 72 hrs by Annexin-V staining based flow cytometry analysis relative to control; assay type: functional
# OVCAR-3 [10] = test: Induction of apoptosis in human OVCAR-3 cells incubated for 72 hrs by Annexin-V staining based flow cytometry analysis relative to control; assay type: functional
# Jurkat [11] = test: Anti-proliferative activity against human Jurkat cells assessed as growth inhibition incubated for 72 hrs by alamar blue staining based fluorometric assay; assay type: functional
# HuT78 [12] = test: Anti-proliferative activity against human HuT78 cells assessed as growth inhibition incubated for 72 hrs by alamar blue staining based fluorometric assay; assay type: functional
# CCRF-HSB-2 [13] = test: Anti-proliferative activity against human CCRF-HSB-2 cells assessed as growth inhibition incubated for 72 hrs by alamar blue staining based fluorometric assay; assay type: functional
# MOLT-4 [14] = test: Anti-proliferative activity against human MOLT-4 cells assessed as growth inhibition incubated for 72 hrs by alamar blue staining based fluorometric assay; assay type: functional
# SUD4 [15] = test: Anti-proliferative activity against human SU-DHL-4 cells assessed as growth inhibition incubated for 72 hrs by alamar blue staining based fluorometric assay; assay type: functional
# Ramos [16] = test: Anti-proliferative activity against human Ramos cells assessed as growth inhibition incubated for 72 hrs by alamar blue staining based fluorometric assay; assay type: functional
# Raji [17] = test: Anti-proliferative activity against human Raji cells assessed as growth inhibition incubated for 72 hrs by alamar blue staining based fluorometric assay; assay type: functional
# DB [18] = test: Anti-proliferative activity against human DB cells assessed as growth inhibition incubated for 72 hrs by alamar blue staining based fluorometric assay; assay type: functional
# K562 [19] = test: Anti-proliferative activity against human K562 cells assessed as growth inhibition incubated for 72 hrs by alamar blue staining based fluorometric assay; assay type: functional
# THP-1 [20] = test: Anti-proliferative activity against human THP-1 cells assessed as growth inhibition incubated for 72 hrs by alamar blue staining based fluorometric assay; assay type: functional
# RPMI-8226 [21] = test: Anti-proliferative activity against human RPMI-8226 cells assessed as growth inhibition incubated for 72 hrs by alamar blue staining based fluorometric assay; assay type: functional
# SUD4 [22] = test: Induction of apoptosis in human SU-DHL-4 cells assessed as cell death at 5 uM incubated for 2 days by Annexin-V staining based flow cytometry analysis; assay type: functional; details: time 2.0 day
# Jurkat [23] = test: Induction of apoptosis in human Jurkat cells assessed as cell death at 5 uM incubated for 2 days by Annexin-V staining based flow cytometry analysis; assay type: functional; details: time 2.0 day
# HuT78 [24] = test: Induction of apoptosis in human HuT78 cells assessed as cell death at 5 uM incubated for 2 days by Annexin-V staining based flow cytometry analysis; assay type: functional; details: time 2.0 day
# CCRF-HSB-2 [25] = test: Induction of apoptosis in human CCRF-HSB-2 cells assessed as cell death at 5 uM incubated for 2 days by Annexin-V staining based flow cytometry analysis; assay type: functional; details: time 2.0 day
# MOLT-4 [26] = test: Induction of apoptosis in human MOLT-4 cells assessed as cell death at 5 uM incubated for 2 days by Annexin-V staining based flow cytometry analysis; assay type: functional; details: time 2.0 day
# Ramos [27] = test: Induction of apoptosis in human Ramos cells assessed as cell death at 5 uM incubated for 2 days by Annexin-V staining based flow cytometry analysis; assay type: functional; details: time 2.0 day
# Raji [28] = test: Induction of apoptosis in human Raji cells assessed as cell death at 5 uM incubated for 2 days by Annexin-V staining based flow cytometry analysis; assay type: functional; details: time 2.0 day
# DB [29] = test: Induction of apoptosis in human DB cells assessed as cell death at 5 uM incubated for 2 days by Annexin-V staining based flow cytometry analysis; assay type: functional; details: time 2.0 day
# THP-1 [30] = test: Induction of apoptosis in human THP-1 cells assessed as cell death at 5 uM incubated for 2 days by Annexin-V staining based flow cytometry analysis; assay type: functional; details: time 2.0 day
# K562 [31] = test: Induction of apoptosis in human K562 cells assessed as cell death at 5 uM incubated for 2 days by Annexin-V staining based flow cytometry analysis; assay type: functional; details: time 2.0 day
# RPMI-8226 [32] = test: Induction of apoptosis in human RPMI-8226 cells assessed as cell death at 5 uM incubated for 2 days by Annexin-V staining based flow cytometry analysis; assay type: functional; details: time 2.0 day
# Jurkat [33] = test: Cytotoxicity in human Jurkat cells assessed as tubulin acetylation at <25 uM incubated for 24 hrs by Western blotting analysis; assay type: functional, cell-based
# Jurkat [34] = test: Cytotoxicity in human Jurkat cells assessed as histone acetylation at <25 uM incubated for 24 hrs by Western blotting analysis; assay type: functional, cell-based
# Jurkat [35] = test: Induction of apoptosis in human Jurkat cells assessed as increased caspase-3 activity at 5 uM incubated for 12 to 48 hrs by colorimetric assay; assay type: functional, cell-based; details: time 12-48 hrs
# Jurkat [36] = test: Induction of apoptosis in human Jurkat cells assessed as PARP cleavage at 5 uM incubated for 48 hrs by Western blotting analysis; assay type: functional, cell-based
# J.gamma1 [37] = test: Induction of apoptosis in human J.gamma1 cells assessed as abolished intracellular calcium level at 10 uM incubated for 5 mins in presence of Iodo-1 by spectrofluorimetric analysis; assay type: functional, cell-based
# Jurkat [38] = test: Induction of apoptosis in human Jurkat cells assessed as increase in intracellular calcium level at 2.5 to 10 uM incubated for 5 mins in presence of Iodo-1 and Ionomycin by spectrofluorimetric analysis; assay type: functional, cell-based; details: dose 2.5-10 µM
# Jurkat [39] = test: Induction of apoptosis in human Jurkat cells assessed as increase in intracellular calcium level incubated for 5 mins in presence of Iodo-1 by spectrofluorimetric analysis; assay type: functional, cell-based; details: dose 2.5-10 µM
# J.gamma1 [40] = test: Induction of apoptosis in human J.gamma1 cells at 5 uM incubated for 24 hrs in presence of thapsigargin by Annexin-V staining based flow cytometry analysis relative to control; assay type: functional
# Jurkat [41] = test: Downregulation of apoptosis in human Jurkat cells incubated for 24 hrs in presence of BAPTA-AM by Annexin-V staining based flow cytometry analysis; assay type: functional, cell-based; details: dose 10.0 µM
# Jurkat [42] = test: Induction of apoptosis in human Jurkat cells at 5 uM incubated for 24 hrs in presence of thapsigargin by Annexin-V staining based flow cytometry analysis relative to control; assay type: functional
# Jurkat [43] = test: Downregulation of apoptosis in human Jurkat cells incubated for 2 days in presence of U73122 by Annexin-V staining based flow cytometry analysis; assay type: functional, cell-based; details: dose 10.0 µM, time 2.0 day
# Jurkat [44] = test: Downregulation of apoptosis in human Jurkat cells at 10 uM incubated for 2 days in presence of U-73343 by Annexin-V staining based flow cytometry analysis; assay type: functional, cell-based; details: time 2.0 day
# J.gamma1 [45] = test: Induction of apoptosis in human J.gamma1 cells at 10 uM incubated for 2 days in presence of U-73122 by Annexin-V staining based flow cytometry analysis; assay type: functional, cell-based; details: time 2.0 day
# J.gamma1 [46] = test: Induction of apoptosis in human J.gamma1 cells at 10 uM incubated for 2 days in presence of U-73343 by Annexin-V staining based flow cytometry analysis; assay type: functional, cell-based; details: time 2.0 day
# J.gamma1 [47] = test: Downregulation of apoptosis in human J.gamma1 cells at 5 uM incubated for 2 days by Annexin-V staining based flow cytometry analysis; assay type: functional, cell-based; details: time 2.0 day
# Jurkat [48] = test: Induction of apoptosis in human Jurkat cells assessed as decrease in intracellular calcium level at 10 uM in presence of Iodo-1 and U73122 by spectrofluorimetric analysis; assay type: functional, cell-based
# Jurkat [49] = test: Induction of apoptosis in human Jurkat cells assessed as intracellular calcium level at 10 uM in presence of Iodo-1 and U73343 by spectrofluorimetric analysis; assay type: functional, cell-based
# Jurkat [50] = test: Induction of apoptosis in human Jurkat cells assessed as increase in cytosolic cytochrome c level at 10 uM incubated for 12 to 24 hrs by Western blotting analysis; assay type: functional, cell-based; details: time lower 12.0 hrs, time upper […]
# J.gamma1 [51] = test: Induction of apoptosis in human J.gamma1 cells assessed as cytochrome c release from mitochondria at 10 uM incubated for 12 to 24 hrs by Western blotting analysis; assay type: functional, cell-based; details: time lower 12.0 hrs, time upper […]
# Jurkat [52] = test: Induction of apoptosis in human Jurkat cells assessed as decrease in FL-Bid at 5 uM incubated for 24 hrs by Western blotting analysis
# J.gamma1 [53] = test: Downregulation of apoptosis in human J.gamma1 cells at 10 uM incubated for 24 hrs in presence of BAPTA-AM by Annexin-V staining based flow cytometry analysis
# Jurkat [54] = test: Induction of apoptosis in human Jurkat cells assessed as intracellular calcium level at 0.4 uM in presence of Iodo-1 by spectrofluorimetric analysis; assay type: functional, cell-based
smiles,measurement,setting,value
COc1ccc(Cn2ccc3ccc(C(=O)NO)cc32)cc1,Activity,A549,0%
same,GI50,MCF7 [1],> 20 µM
same,GI50,OVCAR-3 [2],6 µM
same,GI50,RKO [3],14 µM
same,GI50,U-87 MG [4],17 µM
same,GI50,HeLa,> 20 µM
same,GI50,HCT-116 [5],> 20 µM
same,Activity,HCT-116 [6],3%
same,Activity,U-87 MG [7],0%
same,Activity,RKO [8],0%
same,Activity,MCF7 [9],0%
same,Activity,OVCAR-3 [10],15%
same,GI50,Jurkat [11],2400 nM
same,GI50,HuT78 [12],4 µM
same,GI50,CCRF-HSB-2 [13],1400 nM
same,GI50,MOLT-4 [14],3.3 µM
same,GI50,SUD4 [15],8.2 µM
same,GI50,Ramos [16],6.1 µM
same,GI50,Raji [17],6.8 µM
same,GI50,DB [18],21.2 µM
same,GI50,K562 [19],33.6 µM
same,GI50,THP-1 [20],15.4 µM
same,GI50,RPMI-8226 [21],28 µM
same,Activity,SUD4 [22],inactive
same,Activity,Jurkat [23],Active
same,Activity,HuT78 [24],Active
same,Activity,CCRF-HSB-2 [25],Active
same,Activity,MOLT-4 [26],Active
same,Activity,Ramos [27],inactive
same,Activity,Raji [28],inactive
same,Activity,DB [29],inactive
same,Activity,THP-1 [30],inactive
same,Activity,K562 [31],inactive
same,Activity,RPMI-8226 [32],inactive
same,Activity,Jurkat [33],inactive
same,Activity,Jurkat [34],inactive
same,Activity,Jurkat [35],Active
same,Activity,Jurkat [36],Active
same,Activity,J.gamma1 [37],inactive
same,Activity,Jurkat [38],Active
same,Activity,Jurkat [39],Dose-Dependent Effect
same,Activity,J.gamma1 [40],2%
same,Activity,Jurkat [41],Dose-Dependent Effect
same,Activity,Jurkat [42],> 30%
same,Activity,Jurkat [43],Dose-Dependent Effect
same,Activity,Jurkat [44],inactive
same,Activity,J.gamma1 [45],inactive
same,Activity,J.gamma1 [46],inactive
same,Activity,J.gamma1 [47],Active
same,Activity,Jurkat [48],Active
same,Activity,Jurkat [49],Active
same,Activity,Jurkat [50],Active
same,Activity,J.gamma1 [51],inactive
same,Activity,Jurkat [52],inactive
same,Activity,J.gamma1 [53],inactive
COc1ccc2c(c1)CC[C@@H]1[C@@H]2CC[C@]2(C)[C@@H](NCCCCCCN3C(=O)C=CC3=O)CC[C@@H]12,Activity,Jurkat [54],inactive
